# Laboratory results taken from patent publication US6383773B2, “Penicillin conversion” (Massachusetts Institute of Technology, priority 1998, dated 2002).
# How the values were obtained:
# [1] = test system: growing S. clavuligerus NP1 cells; assay: Conversion of penicillin G into DAOG by growing cells (Example 2); type: cell-based
# Description: Media: Seed culture was prepared using 250 ml baffled flasks containing 40 ml MST medium (90 mM MOPS, 3% Trypticase Soy Broth without Dextrose, 1% soluble starch) adjusted to pH 7.0 before autoclaving. Fermentation was carried out in the same medium or in the defined medium described by Mahro and Demain (1987) containing, per liter, 5 g MOPS; 3.5 g K2 HPO4; 1 ml trace solution containing 1 mg FeSO4.7H2O, 1 mg, MnCl2.4H2O, 1 mg ZnSO4.H2O and 1 mg CaCl2; 2 g L-asparagine; 0.6 g MgSO4.7H2O; 10 g glycerol; initial pH 7.0.
# Culture Conditions: For the seed culture, each flask was inoculated with 50 μl of a spore suspension (prepared and stored in 20% glycerol at −80° C.) and incubated at 30° C. for 48 h. Fermentation were conducted in 250 ml baffled flasks containing 30 ml of medium at 30° C. at 250 rpm. Fermentations were started by transferring 1.5 ml of unwashed mycelium from the seed culture and their duration was 5 days. Once a day, samples were taken for pH, biomass and antibiotic analyses. Growth was measured as dry cell weight.
# Bioassay: Cephalosporin type antibiotic(s) were detected by bioassay using Escherichia coli Ess seeded in LB (1% Tryptone, 0.5% NaCl, 0.5% Yeast Extract, 0.1% Glucose) 0.8% agar medium in the presence of penicillinase (Difco Laboratories, Detroit, Mich.). This is a narrow spectrum β-lactamase that destroys all kinds of penicillins but not cephalosporins. Assays were conducted with filter paper discs saturated with 100 μl of standard (deacetoxycephalosporin G) or supernatants from the fermentation flask. The diameters of zones of growth inhibition were measured after overnight incubation at 37° C.
# C. acremonium expandase = target: T1, C. acremonium expandase (Hapsidospora chrysogena, UniProt P11935); conditions: cited from earlier work
# T1 sequence (P11935 1-332): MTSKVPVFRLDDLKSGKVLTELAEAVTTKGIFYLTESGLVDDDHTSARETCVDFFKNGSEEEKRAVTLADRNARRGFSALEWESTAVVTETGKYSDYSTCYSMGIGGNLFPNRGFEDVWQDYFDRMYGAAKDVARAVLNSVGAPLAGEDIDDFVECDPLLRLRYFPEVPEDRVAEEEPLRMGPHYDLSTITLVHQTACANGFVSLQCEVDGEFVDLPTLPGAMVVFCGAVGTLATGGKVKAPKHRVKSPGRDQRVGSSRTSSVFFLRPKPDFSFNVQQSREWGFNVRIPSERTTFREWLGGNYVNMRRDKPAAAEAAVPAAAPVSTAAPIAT
# [2] = MST supplemented with 50 μg penicillin G/ml, after 72 hours of incubation
# [3] = defined medium, 50 μg/ml penicillin G, after 48 hours
# [4] = defined medium, 100 μg/ml penicillin G, after 48 hours
smiles,measurement,setting,value
"CC1(C)S[C@@H]2[C@H](NC(=O)Cc3ccccc3)C(=O)N2[C@H]1C(=O)O [Penicillin G, penicillin G]",cephalosporin produced,[1]; [2],10.5 μg cephalosporin/ml
same,conversion,[1]; [2],approximately 21%
same,conversion,"[1]; MST supplemented with 100 μg penicillin G/ml, after 96 hours",the same level of conversion
same,cephalosporin produced,[1]; [3],4.55 μg cephalosporin/ml
same,conversion rate,[1]; [3],9.1%
same,cephalosporin produced,[1]; [4],10.5 μg cephalosporin/ml
same,conversion rate,[1]; [4],10.5%
same,substrate for expandase activity,C. acremonium expandase; crude extracts (Kohsaka et al. 1976; Demain et al.),not
same,ring expansion,C. acremonium expandase; partially purified enzyme (Kupka et al. 1983),does not expand
